Measurements: the NIST ThermoML archive (doi:10.1021/je200609g)

Test: xn = mol fraction of the nth substance listed
Conditions: 101 kPa, Liquid; for mass density: Vibrating tube method

CCn1cc[n+](C)c1.O=S(=O)([O-])C(F)(F)F [1-ethyl-3-methylimidazolium trifluoromethanesulfonate] + CC(C)O
speed of sound [m/s], Sing-around technique in a fixed-path interferometer
Conditions	278.15 K	288.15 K	298.15 K	308.15 K	318.15 K	328.15 K
x1 = 0.0499	1220.6	1188.2	1156.4	1124.5	1092.5	1060.1
x1 = 0.0996	1233.3	1203.2	1173.6	1143.9	1114.1	1084.3
x1 = 0.15	1249.7	1221.4	1193.3	1165.3	1137.2	1109
x1 = 0.2001	1267.9	1240.6	1213.7	1186.8	1159.9	1133
x1 = 0.2994	1305.6	1279.7	1254.2	1228.8	1203.6	1178.5
x1 = 0.4004	1341.7	1316.5	1291.8	1267.5	1243.3	1219.5
x1 = 0.4997	1373.6	1348.8	1324.7	1301	1277.6	1254.6
x1 = 0.5999	1401.7	1377.3	1353.6	1330.4	1307.7	1285.2
x1 = 0.7019	1426.3	1402.6	1379.4	1356.7	1334.4	1312.6
x1 = 0.7987	1447	1423.4	1400.5	1378.1	1356.2	1334.8
x1 = 0.8519	1458	1434.1	1411.2	1388.7	1366.7	1345.2
x1 = 0.8989	1465.9	1442.5	1419.8	1397.5	1375.9	1354.6
x1 = 0.9462	1474.3	1450.8	1428.1	1406	1384.3	1363.1

mass density [kg/m3]
Conditions	278.15 K	288.15 K	298.15 K	308.15 K	318.15 K	328.15 K
x1 = 0.0499	868.82	860.62	852.27	843.73	834.95	825.89
x1 = 0.0996	929.8	921.53	913.15	904.62	895.92	887.02
x1 = 0.15	984.2	975.84	967.41	958.87	950.21	941.42
x1 = 0.2001	1032.07	1023.66	1015.19	1006.67	998.06	989.35
x1 = 0.2994	1111.77	1103.29	1094.81	1086.3	1077.77	1069.21
x1 = 0.4004	1177.58	1169.07	1160.58	1152.12	1143.67	1135.22
x1 = 0.4997	1231.42	1222.91	1214.45	1206.03	1197.63	1189.27
x1 = 0.5999	1276.64	1268.13	1259.68	1251.27	1242.91	1234.58
x1 = 0.7019	1315.15	1306.65	1298.2	1289.82	1281.48	1273.2
x1 = 0.7987	1347.13	1338.64	1330.2	1321.82	1313.5	1305.24
x1 = 0.8519	1362.88	1354.39	1345.96	1337.58	1329.26	1320.99
x1 = 0.8989	1375.94	1367.46	1359.02	1350.65	1342.33	1334.07
x1 = 0.9462	1388.37	1379.89	1371.46	1363.08	1354.76	1346.5

CCn1cc[n+](C)c1.O=S(=O)([O-])C(F)(F)F [1-ethyl-3-methylimidazolium trifluoromethanesulfonate] + C1CCOC1
Conditions	mass density, 278.15 K [kg/m3]	mass density, 288.15 K [kg/m3]	mass density, 298.15 K [kg/m3]	mass density, 308.15 K [kg/m3]	mass density, 318.15 K [kg/m3]	speed of sound, 278.15 K [m/s]	speed of sound, 288.15 K [m/s]	speed of sound, 298.15 K [m/s]	speed of sound, 308.15 K [m/s]	speed of sound, 318.15 K [m/s]
x1 = 0.051	964.39	953.89	943.29	932.59	921.76	1362.7	1316.9	1271.7	1227	1182.8
x1 = 0.1	1013.94	1003.61	993.23	982.77	972.18	–	1318.7	1275.5	1233.3	1191.4
x1 = 0.1503	1059.68	1049.68	1039.61	1029.5	1019.22	–	1325.4	1285.5	1246.5	1207.2
x1 = 0.2001	1098.67	1088.88	1079.04	1069.18	1059.3	1373.3	1334.8	1297.4	1260.7	1224.5
x1 = 0.3001	1166.19	1155.19	1145.24	1135.87	1126.45	1387.7	1353.8	1320.8	1288.7	1257.1
x1 = 0.3992	1217.18	1207.94	1198.76	1189.62	1180.52	1403.5	1372.7	1342.8	1313.3	1284.5
x1 = 0.4995	1261.1	1252.06	1243.08	1234.16	1225.28	1414.7	1388	1361.4	1335.5	1309.7
x1 = 0.599	1297.75	1288.87	1280.05	1271.3	1262.63	1432.5	1405.8	1379.9	1354.5	1329.9
x1 = 0.7014	1330	1321.24	1312.54	1303.92	1295.36	1446.6	1421.4	1396.8	1372.6	1349
x1 = 0.7965	1356.21	1347.55	1338.96	1330.44	1321.98	1459	1434.6	1410.8	1387.6	1365.1
x1 = 0.849	1369.15	1360.54	1352	1343.53	1335.11	1465.4	1441.4	1418.1	1395.2	1372.9
x1 = 0.899	1380.34	1371.78	1363.27	1354.82	1346.41	1470.5	1446.4	1423.1	1400.3	1378.1
x1 = 0.9511	1391.34	1382.83	1374.36	1365.93	1357.57	1476	1452.3	1429.2	1406.8	1384.9
